Results: US5026848A, “Novel generation of heteroaryloxyalkyl heterocycles with antipicornaviruses activities” (Synphar Laboratories Incorporated, priority 1988, dated 1991)
Converted amounts (≈) assume the structure as drawn.

What was measured:
HRV-1A and HRV-39 = test: Anti-rhinovirus activity against HRV-1A and HRV-39; details: in words
WI38 cells = test: Toxicity to WI38 cells (change in morphology in / growth inhibition of 25% of the cells); assay type: cell-based
Rhinovirus 1A = test: Anti-rhinovirus activity, cytopathic effect inhibition / neutral red dye uptake, type 1A; assay type: cell-based; details: Table I, WI38 cells, 33° C., 3-4 days, NA = Not active; for EC50: Enterovirus, WI-38, read-out: MIC50 Rhinovirus 1A
Rhinovirus 39 = test: Anti-rhinovirus activity, cytopathic effect inhibition / neutral red dye uptake, type 39; assay type: cell-based; details: Table I, WI38 cells, 33° C., 3-4 days; for EC50: Enterovirus, WI-38, read-out: MIC50 Rhinovirus 39
Rhinovirus 1B = test: Anti-rhinovirus activity, cytopathic effect inhibition / neutral red dye uptake, type 1B; assay type: cell-based; details: Enterovirus, WI-38; Table II; one of seven commonest serotypes; read-out: MIC 50 Rhinovirus Type 1B
Rhinovirus 4 = test: Anti-rhinovirus activity, cytopathic effect inhibition / neutral red dye uptake, type 4; assay type: cell-based; details: Enterovirus, WI-38; Table II; one of seven commonest serotypes; read-out: MIC 50 Rhinovirus Type 4
Rhinovirus 15 = test: Anti-rhinovirus activity, cytopathic effect inhibition / neutral red dye uptake, type 15; assay type: cell-based; details: Enterovirus, WI-38; Table II; one of seven commonest serotypes; read-out: MIC 50 Rhinovirus Type 15
Rhinovirus 17 = test: Anti-rhinovirus activity, cytopathic effect inhibition / neutral red dye uptake, type 17; assay type: cell-based; details: Enterovirus, WI-38; Table II; read-out: MIC 50 Rhinovirus Type 17
Rhinovirus 29 = test: Anti-rhinovirus activity, cytopathic effect inhibition / neutral red dye uptake, type 29; assay type: cell-based; details: Enterovirus, WI-38; Table II; one of seven commonest serotypes; read-out: MIC 50 Rhinovirus Type 29
Rhinovirus 31 = test: Anti-rhinovirus activity, cytopathic effect inhibition / neutral red dye uptake, type 31; assay type: cell-based; details: Enterovirus, WI-38; Table II; one of seven commonest serotypes; read-out: MIC 50 Rhinovirus Type 31
Rhinovirus 36 = test: Anti-rhinovirus activity, cytopathic effect inhibition / neutral red dye uptake, type 36; assay type: cell-based; details: Enterovirus, WI-38; Table II; read-out: MIC 50 Rhinovirus Type 36
Rhinovirus 86 = test: Anti-rhinovirus activity, cytopathic effect inhibition / neutral red dye uptake, type 86; assay type: cell-based; details: Enterovirus, WI-38; Table II; read-out: MIC 50 Rhinovirus Type 86
Polio 1 = test: microbe, parasite or virus in culture; assay type: cell-based; details: Enterovirus, read-out: MIC 50 Polio 1
Coxsacki-A21 = test: Activity against other picornaviruses, Coxsacki-A21; assay type: cell-based; details: Enterovirus, read-out: MIC 50 Cox. A21
Coxsacki-B1 = test: Activity against other picornaviruses, Coxsacki-B1; assay type: cell-based; details: Enterovirus, read-out: MIC 50 Cox. B1
Echo-7 = test: Activity against other picornaviruses, Echo-7; assay type: cell-based; details: Enterovirus, read-out: MIC 50 Echo 7
Echo-11 = test: Activity against other picornaviruses, Echo-11; assay type: cell-based; details: Enterovirus, read-out: MIC 50 Echo 11
Enterovirus serotypes = assay type: cell-based; details: Table III; numerator; denominator 7, but 5 for compound 8
[1] = test system: 20 serotypes of rhinovirus; test: Anti-rhinovirus activity against a panel of 20 serotypes; details: Table II; numerator; denominator 20, but 10 for compound 8 and 6 for compound 30
[2] = Table I, concentration with change in morphology in 25% of WI38 cells

| Molecule | inhibitory activity against HRV-1A and HRV-39 in vitro (HRV-1A and HRV-39) | Toxicity (WI38 cells; [2]) | EC50 (Rhinovirus 1A) | EC50 (Rhinovirus 39) | other results |
| --- | --- | --- | --- | --- | --- |
| Cc1cc(OCCCCCCc2ccns2)c2ccccc2n1 [Compound 26, 5-[6-(2-methylquinoline-4-yl)oxyhexyl]isothiazole] | remarkably inhibitory activity |  |  |  |  |
| Cc1cc(OCCCCCCc2c(Cl)cnn2-c2ccccc2)c2ccccc2n1 [Compound 35, 4-chloro-5-[6-(2-methylqinolin-4-yl)oxyhexyl]phenylpyrazole] | remarkably inhibitory activity |  |  |  |  |
| Cc1cc(CCCCCCCON2C(=O)COc3c2ccc2ccccc32)on1 [Compound 6, 5-[7-(2,3-dihydro-3-oxo-4H-napth[1,2-b]-1,4-oxazin-4-yl)oxyheptyl]-3-methylisoxazole] | remarkably inhibitory activity | > 50 µg/mL | 50 µg/mL (≈ 127 µM) | 50 µg/mL (≈ 127 µM) |  |
| Cc1cc(CCCCCCCOC23CC4CC(CC(C4)C2)C3)on1 [Compound 12, 5-[7-(Adamantanol-1-yl)oxyheptyl]-3-methylisoxazole] |  | 50 µg/mL | 25 µg/mL (≈ 75.4 µM) | 10 µg/mL (≈ 30.2 µM) |  |
| Cc1cc(CCCCCCCOC2c3ccccc3-c3ccccc32)on1 [Compound 29, 5-[7-(fluorene-9-yloxy)-heptyl]-3-methylisoxazole] |  | > 50 µg/mL |  | 25 µg/mL (≈ 69.2 µM) |  |
| Cc1cnsc1CCCCCCOc1cccc2ccccc12 | remarkably inhibitory activity |  |  |  |  |
| Cc1cc(CCCCCCCOc2cccc3ccccc23)on1 [Compound 14, 5-[7-(1-naphthyl)oxyheptyl]-3-methylisoxazole] | remarkably inhibitory activity | > 50 µg/mL | 25 µg/mL (≈ 77.3 µM) | 25 µg/mL (≈ 77.3 µM) |  |
| 5-[7-(2-Naphthyl)oxyheptyl]-3-methylthiazole [Compound 18] |  | > 50 µg/mL |  |  | MIC50 Rhinovirus 1A (Rhinovirus 1A): 25 µg/mL; MIC50 Rhinovirus 39 (Rhinovirus 39): 25 µg/mL |
| c1ccc(-n2nccc2CCCCCCOc2cccc3ccccc23)cc1 [Compound 33, 5-[6-(1-naphthyl)oxyhexyl]-1-phenylpyrazole] | remarkably inhibitory activity |  |  |  |  |
| Cc1cc(OCCCCCCc2sncc2C)c2ccccc2n1 [Compound 20, 5-[6-(2-methylquinolin-4-yl)oxyhexyl]-4-methylisothiazole] | remarkably inhibitory activity |  |  |  |  |
| Cc1cc(CCCCCCCOc2ccc3c(c2)[nH]c2ccccc23)on1 [Compound 8, 5-[7-(carbazol-2-yl)oxyheptyl]-3-methylisoxazole] | remarkably inhibitory activity | 25 µg/mL | 10 µg/mL (≈ 27.6 µM) | 10 µg/mL (≈ 27.6 µM) | Toxicity (WI38 cells; Table II): 25 µg/mL; Toxicity (WI38 cells; Table III): 25 µg/mL; IC50 (Rhinovirus 1B): 5 µg/mL (≈ 13.8 µM); IC50 (Rhinovirus 4): > 25 µg/mL; IC50 (Rhinovirus 15): > 25 µg/mL; IC50 (Rhinovirus 17): > 25 µg/mL; IC50 (Rhinovirus 29): > 25 µg/mL; EC50 (Rhinovirus 31): 1 µg/mL (≈ 2.76 µM); EC50 (Rhinovirus 36): > 25 µg/mL; EC50 (Rhinovirus 86): > 25 µg/mL; EC50 (Polio 1): > 25 µg/mL; IC50 (Coxsacki-A21): > 25 µg/mL; IC50 (Coxsacki-B1): > 25 µg/mL; IC50 (Echo-7): > 25 µg/mL; IC50 (Echo-11): > 25 µg/mL; All Enterovirus Serotypes (number of serotypes active / tested) (Enterovirus serotypes): 0; All Rhinovirus Serotypes (number of serotypes active / tested) [1]: 4 |
| Cc1cc(CCCCCCCOc2nc3ccccc3[nH]2)on1 [Compound 11, 5-[7-(benzimidazol-2-yl)oxyheptyl]-3-methylisoxazole] |  | 50 µg/mL | 25 µg/mL (≈ 79.8 µM) | 10 µg/mL (≈ 31.9 µM) |  |
| Cc1cc(CCCCCCCOc2cc(C)c3ccccc3n2)on1 [Compound 10, 5-[7-(4-methylquinolin-2-yl)oxyheptyl]-3-methylisoxazole] |  | 50 µg/mL | 25 µg/mL (≈ 73.9 µM) | 25 µg/mL (≈ 73.9 µM) |  |
| Cc1cnsc1CCCCCCOc1ccc2ccccc2c1 [Compound 21, 5-[6-(2-napthyl)oxyhexyl]-4-methylisothiazole] |  | 50 µg/mL | 25 µg/mL (≈ 76.8 µM) | 10 µg/mL (≈ 30.7 µM) |  |
| Cc1cc(CCCCCCCOc2ccc(-n3cncn3)cc2)on1 [Compound 3, 5-{7-[4-(1,2,4-triazol-1-yl)phenoxy]heptyl}-3-methylisoxazole] | remarkably inhibitory activity | 750 µg/mL | 50 µg/mL (≈ 147 µM) | 50 µg/mL (≈ 147 µM) |  |
| Cc1cnsc1CCCCCCOc1cccc2ccccc12 [Compound 22, 5-[6-(1-napthyl)oxyhexyl]-4-methylisothiazole] |  | > 50 µg/mL | 25 µg/mL (≈ 76.8 µM) | 25 µg/mL (≈ 76.8 µM) |  |
| Cc1cc(OCCCCCCc2ccnn2-c2ccccc2)c2ccccc2n1 [Compound 31, 5-[6-(2-methylquinolin-4-yl)oxyhexyl]-1-phenylpyrazole] | remarkably inhibitory activity | 25 µg/mL | 10 µg/mL (≈ 25.9 µM) | 10 µg/mL (≈ 25.9 µM) |  |
| c1ccc(-n2nccc2CCCCCCOc2ccc3oc4ccccc4c3c2)cc1 [Compound 30] | remarkably inhibitory activity | > 50 µg/mL | 10 µg/mL (≈ 24.4 µM) | 5 µg/mL (≈ 12.2 µM) | Toxicity (WI38 cells; Table II): > 50 µg/mL; IC50 (Rhinovirus 1B): 10 µg/mL (≈ 24.4 µM); IC50 (Rhinovirus 4): 10 µg/mL (≈ 24.4 µM); IC50 (Rhinovirus 15): 5 µg/mL (≈ 12.2 µM); EC50 (Rhinovirus 31): > 25 µg/mL; All Rhinovirus Serotypes (number of serotypes active / tested) [1]: 5 |
| Cc1cc(CCCCCCCOc2ccc3ccccc3c2)on1 [Compound 13, 5-[7-(2-naphthyl)oxyheptyl]-3-methylisoxazole] | remarkably inhibitory activity | 50 µg/mL | 25 µg/mL (≈ 77.3 µM) | 10 µg/mL (≈ 30.9 µM) |  |
| c1ccc(-n2nccc2CCCCCCOc2ccc3ccccc3c2)cc1 [Compound 32, 5-[6-(2-naphthyl)-oxyhexyl]-1-phenylpyrazole] | remarkably inhibitory activity | 50 µg/mL | 25 µg/mL (≈ 67.5 µM) | 25 µg/mL (≈ 67.5 µM) |  |
| Cc1csc(CCCCCCCOc2cc(C)nc3ccccc23)n1 [Compound 16] | remarkably inhibitory activity | 25 µg/mL |  | 5 µg/mL (≈ 14.1 µM) |  |
| 5-[7-(fluoren-9-yl)oxyheptyl]-3-methylthiazole | remarkably inhibitory activity |  |  |  |  |
